Test results reported in US10745399B2 (priority 2015, dated 2020).
Where two headings read alike, the source gives them in different places.

Tests used:
PI3K p110β/p85α (human) = PI3K p110β/p85α (human) (Homo sapiens (Human), UniProt P42338); assay: PI3K p110β/p85α (human), non-radioactive assay (HTRF); assay type: biochemical; conditions: read-out: IC50 (PI3Kbeta)
Experimental: PI3K p110β/p85a (Human), Non-Radioactive Assay
(§1) PI3K p110β/p85α (human) was incubated in an assay buffer comprising 10 μM phosphatidylinositol 4,5-bisphosphate and MgATP (concentration as necessary). The reaction was initiated by addition of MgATP solution. After an incubation time of 30 min at room temperature, the reaction was stopped by addition of a solution consisting of EDTA and biotinylated phosphatidylinositol 3,4,5-trisphosphate. Finally, the detection buffer, consisting of a europium-labelled anti-GST monoclonal antibody, a GST-labelled GRP1 PH domain and streptavidin allophycocyanin, was added. The plate was read out via homogeneous time-resolved fluorescence (HTRF) and the corresponding signals were evaluated via the formula HTRF=10000×(Em665 nm/Em620 nm).

[1] = system: CHK2 phosphorylation (phospho-Thr68) in HCT116 cells; assay: Cellular pCHK2 assay, bleomycin-induced phosphorylation of CHK2 (phospho-Thr68), immunofluorescence high content; assay type: cell-based; conditions: Homo sapiens, HCT-116, 4 h, read-out: IC50 (pCHK2)
PI3K p110α/p85α (human) = PI3K p110α/p85α (human) (Homo sapiens (Human), UniProt P42336); assay: PI3K p110α/p85α (human), non-radioactive assay (HTRF); assay type: biochemical; conditions: read-out: IC50 (PI3Kalpha)
Experimental: as §1, with “The” for “PI3K p110β/p85α (human) was incubated in an assay buffer comprising 10 μM phosphatidylinositol 4,5-bisphosphate and MgATP (concentration as necessary). The”, “After” for “After an”, “incubation” for “incubation time of 30 min”, “temperature for 40 minutes,” for “temperature,”

PI3K (p120γ) (human) = PI3K (p120γ) (human) (Homo sapiens (Human), UniProt P48736); assay: PI3K (p120γ) (human), non-radioactive assay (HTRF); assay type: biochemical; conditions: read-out: IC50 (PI3Kgamma)
Experimental: The reaction was initiated by addition of MgATP solution. After an incubation time of 30 min at room temperature, the reaction was stopped by addition of a solution consisting of EDTA and biotinylated phosphatidylinositol 3,4,5-trisphosphate. Finally, the detection buffer, consisting of a europium-labelled anti-GST monoclonal antibody, a GST-labelled GRP1 PH domain and streptavidin allophycocyanin, was added.

mTOR (human) = mTOR (human) (Homo sapiens (Human), UniProt P42345); assay: mTOR (human) radiometric kinase assay; assay type: biochemical
Experimental: mTOR (human) was incubated with 50 mM HEPES pH 7.5, 1 mM EGTA, 0.01% Tween 20, 2 mg/ml of the substrate, 3 mM MnCl2 and [γ-^33P-ATP] (specific activity approximately 500 cpm/pmol, concentration as necessary). The reaction was initiated by addition of MgATP solution. After incubation at room temperature for 40 minutes, the reaction was stopped by addition of 3% phosphoric acid. 10 μl of the reaction solution were then transferred dropwise onto a P30 filtermat and washed three times for 5 min in 75 mM phosphoric acid and once in methanol, dried and evaluated by means of liquid scintillation counting.

PI3K p110δ/p85α (human) = PI3K p110δ/p85α (human) (Homo sapiens (Human), UniProt O00329); assay: PI3K p110δ/p85α (human), non-radioactive assay (HTRF); assay type: biochemical; conditions: read-out: IC50 (PI3Kdelta)
Experimental: as §1, with “The” for “PI3K p110β/p85α (human) was incubated in an assay buffer comprising 10 μM phosphatidylinositol 4,5-bisphosphate and MgATP (concentration as necessary). The”

human recombinant ATM = human recombinant ATM (Homo sapiens (Human), UniProt Q13315); assay: ATM kinase assay (IC50 ATM), TR-FRET; assay type: biochemical
Experimental: ATM Kinase Assay—Determination of ATM Inhibition (IC50 ATM):
The IC50 value was determined with the aid of a biochemical ATM kinase assay. The assay consists of two steps: the enzymatic reaction and the detection step. Firstly, ATM (ataxia telangiectasia mutated) protein and the test substance are incubated at different concentrations with addition of substrate protein p53 and ATP. ATM mediates the phosphorylation of p53 at several positions, including at amino acid S15. The amount of phosphorylated p53 is determined with the aid of specific antibodies and the TR-FRET technique. The enzymatic ATM assay is carried out as TR-FRET (HTRF™, Cisbio Bioassays) based 384-well assay. In the first step, purified human recombinant ATM (human ATM, full length, GenBank ID NM_000051, expressed in a mammal cell line) is incubated in assay buffer for 15 minutes with the ATM inhibitor in various concentrations and without test substance as negative or neutral control. The assay buffer comprises 25 mM HEPES pH 8.0, 10 mM Mg(CH3COO)2, 1 mM MnCl2, 0.1% BSA and 0.01% Brij® 35, 5 mM dithiothreitol (DTT). […] In the second step, purified human recombinant cmyc-labelled p53 (human p53, full length, GenBank ID BC003596, expressed in Sf21 insect cells) and ATP are added, and the reaction mixture is incubated at 22° C. for 30-35 minutes. The pharmacologically relevant assay volume is 5 μl. […] The enzymatic reaction is stopped by addition of EDTA. […] After incubation, usually for 2 hours (between 1.5 and 15 h), for signal development, the plates are analysed in a plate reader (EnVision, PerkinElmer) using TRF mode (and with laser excitation). […] The measurement data were processed by means of Genedata Screener software. IC50 determinations are carried out, in particular, by fitting a dose/action curve to the data points by means of nonlinear regression analysis.

human recombinant ATM, sequence (Q13315 whole entry): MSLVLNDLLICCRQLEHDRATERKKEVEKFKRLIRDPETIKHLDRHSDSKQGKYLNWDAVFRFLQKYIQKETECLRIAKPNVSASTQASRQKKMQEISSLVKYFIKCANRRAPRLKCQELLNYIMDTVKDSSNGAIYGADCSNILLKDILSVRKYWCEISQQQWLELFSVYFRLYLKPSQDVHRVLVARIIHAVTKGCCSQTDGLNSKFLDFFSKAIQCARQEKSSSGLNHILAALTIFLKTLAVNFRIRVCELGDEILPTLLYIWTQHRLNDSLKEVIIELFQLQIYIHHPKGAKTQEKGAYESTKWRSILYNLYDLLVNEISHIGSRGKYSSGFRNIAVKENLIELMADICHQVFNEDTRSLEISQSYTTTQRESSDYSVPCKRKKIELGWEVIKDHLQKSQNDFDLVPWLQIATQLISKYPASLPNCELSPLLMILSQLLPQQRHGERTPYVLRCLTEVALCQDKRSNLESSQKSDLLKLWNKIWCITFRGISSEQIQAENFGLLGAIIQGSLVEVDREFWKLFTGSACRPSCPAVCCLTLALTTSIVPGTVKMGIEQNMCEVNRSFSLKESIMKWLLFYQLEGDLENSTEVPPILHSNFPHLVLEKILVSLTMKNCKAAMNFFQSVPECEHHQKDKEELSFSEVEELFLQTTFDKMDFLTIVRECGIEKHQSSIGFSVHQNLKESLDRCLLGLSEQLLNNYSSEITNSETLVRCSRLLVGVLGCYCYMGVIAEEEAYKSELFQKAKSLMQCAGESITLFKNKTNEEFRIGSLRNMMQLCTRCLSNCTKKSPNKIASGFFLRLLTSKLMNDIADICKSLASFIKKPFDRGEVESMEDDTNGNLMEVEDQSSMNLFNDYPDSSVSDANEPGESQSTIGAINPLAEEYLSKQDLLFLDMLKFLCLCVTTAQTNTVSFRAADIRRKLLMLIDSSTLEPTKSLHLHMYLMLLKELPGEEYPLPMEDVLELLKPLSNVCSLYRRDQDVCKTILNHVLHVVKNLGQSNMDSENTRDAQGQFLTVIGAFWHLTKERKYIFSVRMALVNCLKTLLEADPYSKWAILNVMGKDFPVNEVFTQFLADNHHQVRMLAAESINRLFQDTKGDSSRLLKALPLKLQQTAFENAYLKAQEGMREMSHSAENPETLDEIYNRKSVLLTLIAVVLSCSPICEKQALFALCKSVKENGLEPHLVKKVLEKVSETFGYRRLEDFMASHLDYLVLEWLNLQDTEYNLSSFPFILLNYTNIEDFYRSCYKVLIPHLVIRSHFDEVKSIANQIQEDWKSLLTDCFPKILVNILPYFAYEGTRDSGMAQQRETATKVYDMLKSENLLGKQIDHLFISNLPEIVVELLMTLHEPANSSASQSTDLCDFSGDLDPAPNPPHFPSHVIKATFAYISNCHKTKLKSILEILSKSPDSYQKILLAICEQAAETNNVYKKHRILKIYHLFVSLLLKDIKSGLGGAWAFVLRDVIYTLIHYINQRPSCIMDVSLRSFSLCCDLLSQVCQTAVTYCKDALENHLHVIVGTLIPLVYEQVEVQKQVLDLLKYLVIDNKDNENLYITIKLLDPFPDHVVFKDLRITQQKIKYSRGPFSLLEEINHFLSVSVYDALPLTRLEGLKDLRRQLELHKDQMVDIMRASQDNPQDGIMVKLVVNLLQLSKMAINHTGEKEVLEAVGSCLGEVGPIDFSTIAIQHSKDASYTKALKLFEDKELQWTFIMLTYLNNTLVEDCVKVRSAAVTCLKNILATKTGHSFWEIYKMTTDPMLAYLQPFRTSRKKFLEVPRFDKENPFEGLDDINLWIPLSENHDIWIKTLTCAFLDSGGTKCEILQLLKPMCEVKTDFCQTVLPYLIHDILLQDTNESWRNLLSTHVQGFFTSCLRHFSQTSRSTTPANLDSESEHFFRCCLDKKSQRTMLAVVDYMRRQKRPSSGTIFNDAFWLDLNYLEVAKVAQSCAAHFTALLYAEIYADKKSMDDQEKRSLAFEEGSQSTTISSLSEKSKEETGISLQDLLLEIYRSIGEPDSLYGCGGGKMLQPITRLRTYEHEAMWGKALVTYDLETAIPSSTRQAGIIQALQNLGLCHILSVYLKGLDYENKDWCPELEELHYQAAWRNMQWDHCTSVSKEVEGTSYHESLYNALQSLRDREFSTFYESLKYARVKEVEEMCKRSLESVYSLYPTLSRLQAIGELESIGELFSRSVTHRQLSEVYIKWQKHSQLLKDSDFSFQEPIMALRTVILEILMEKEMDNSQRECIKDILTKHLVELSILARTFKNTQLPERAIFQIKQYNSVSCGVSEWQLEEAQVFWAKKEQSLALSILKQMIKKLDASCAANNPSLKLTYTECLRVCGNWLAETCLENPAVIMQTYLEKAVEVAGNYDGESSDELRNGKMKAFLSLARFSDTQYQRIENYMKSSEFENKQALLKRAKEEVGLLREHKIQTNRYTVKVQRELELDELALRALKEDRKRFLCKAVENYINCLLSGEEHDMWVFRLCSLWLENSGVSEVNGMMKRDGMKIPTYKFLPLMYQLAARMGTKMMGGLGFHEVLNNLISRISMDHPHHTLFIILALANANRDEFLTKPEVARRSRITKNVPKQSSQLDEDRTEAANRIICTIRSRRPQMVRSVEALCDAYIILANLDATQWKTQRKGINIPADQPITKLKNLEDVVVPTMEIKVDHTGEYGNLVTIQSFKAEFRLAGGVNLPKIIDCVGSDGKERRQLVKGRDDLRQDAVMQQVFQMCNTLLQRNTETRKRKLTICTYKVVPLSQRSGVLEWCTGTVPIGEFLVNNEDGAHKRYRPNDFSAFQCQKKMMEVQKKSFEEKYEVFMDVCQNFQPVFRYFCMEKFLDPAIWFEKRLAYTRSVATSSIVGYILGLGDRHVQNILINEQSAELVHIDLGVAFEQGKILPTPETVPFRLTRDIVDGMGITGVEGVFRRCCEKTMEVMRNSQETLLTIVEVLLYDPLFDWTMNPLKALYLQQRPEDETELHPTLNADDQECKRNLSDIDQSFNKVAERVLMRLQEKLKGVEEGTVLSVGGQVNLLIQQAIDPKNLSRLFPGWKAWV
PI3K p110α/p85α (human), sequence (P42336 whole entry): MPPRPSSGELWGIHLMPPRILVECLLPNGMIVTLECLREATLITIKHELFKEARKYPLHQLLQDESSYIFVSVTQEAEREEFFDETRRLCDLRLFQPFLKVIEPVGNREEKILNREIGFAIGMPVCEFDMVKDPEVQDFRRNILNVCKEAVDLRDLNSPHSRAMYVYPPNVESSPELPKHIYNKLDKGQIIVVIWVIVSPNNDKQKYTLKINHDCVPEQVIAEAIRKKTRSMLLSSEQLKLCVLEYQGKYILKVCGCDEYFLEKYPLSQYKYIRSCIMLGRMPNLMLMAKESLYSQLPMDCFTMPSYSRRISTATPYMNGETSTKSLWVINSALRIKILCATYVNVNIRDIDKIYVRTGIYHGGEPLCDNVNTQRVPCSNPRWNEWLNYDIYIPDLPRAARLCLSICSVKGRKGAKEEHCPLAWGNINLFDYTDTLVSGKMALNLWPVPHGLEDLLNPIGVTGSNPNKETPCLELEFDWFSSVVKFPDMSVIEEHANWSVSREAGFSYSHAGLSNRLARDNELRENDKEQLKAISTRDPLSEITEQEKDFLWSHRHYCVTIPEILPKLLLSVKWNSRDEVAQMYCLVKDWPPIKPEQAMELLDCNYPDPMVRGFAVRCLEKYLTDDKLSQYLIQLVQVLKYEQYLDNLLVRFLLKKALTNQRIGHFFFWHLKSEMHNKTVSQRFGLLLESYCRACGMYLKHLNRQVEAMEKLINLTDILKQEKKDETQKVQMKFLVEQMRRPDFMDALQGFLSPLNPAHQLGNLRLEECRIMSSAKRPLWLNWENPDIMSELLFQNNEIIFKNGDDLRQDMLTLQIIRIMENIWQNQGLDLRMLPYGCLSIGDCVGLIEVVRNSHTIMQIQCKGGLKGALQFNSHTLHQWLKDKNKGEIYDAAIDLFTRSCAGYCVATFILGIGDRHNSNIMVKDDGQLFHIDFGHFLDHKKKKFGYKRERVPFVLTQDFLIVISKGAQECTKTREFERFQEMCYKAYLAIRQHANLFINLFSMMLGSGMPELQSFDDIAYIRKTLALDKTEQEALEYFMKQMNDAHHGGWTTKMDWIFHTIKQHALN
PI3K p110α/p85α (human), sequence (P27986 whole entry partner): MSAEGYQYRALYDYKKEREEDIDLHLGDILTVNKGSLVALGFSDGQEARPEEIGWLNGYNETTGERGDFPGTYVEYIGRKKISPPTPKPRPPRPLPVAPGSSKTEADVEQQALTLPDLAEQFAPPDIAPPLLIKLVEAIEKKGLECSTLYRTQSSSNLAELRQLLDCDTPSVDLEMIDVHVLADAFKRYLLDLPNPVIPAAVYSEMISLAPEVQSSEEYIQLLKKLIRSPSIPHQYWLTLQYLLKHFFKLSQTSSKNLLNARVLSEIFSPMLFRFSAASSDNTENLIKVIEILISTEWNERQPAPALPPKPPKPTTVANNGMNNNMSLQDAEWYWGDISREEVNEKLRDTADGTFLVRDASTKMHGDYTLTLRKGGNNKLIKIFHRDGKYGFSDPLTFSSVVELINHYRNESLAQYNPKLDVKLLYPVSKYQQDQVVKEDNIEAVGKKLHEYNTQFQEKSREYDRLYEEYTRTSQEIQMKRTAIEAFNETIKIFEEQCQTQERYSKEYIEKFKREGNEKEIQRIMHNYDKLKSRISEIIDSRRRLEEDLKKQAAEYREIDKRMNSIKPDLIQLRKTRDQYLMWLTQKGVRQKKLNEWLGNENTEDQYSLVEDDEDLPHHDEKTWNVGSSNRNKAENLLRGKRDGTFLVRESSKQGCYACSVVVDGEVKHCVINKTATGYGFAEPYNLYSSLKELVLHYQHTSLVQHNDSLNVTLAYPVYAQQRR

CCn1cc(-c2cc3c(cc2OC)ncc2c3n(-c3c(F)cncc3OC)c(=O)n2C)cn1 [Example 13]
IC50 (PI3K p110β/p85α (human)): > 30 µM
IC50 [1]: < 0.2 µM
IC50 (PI3K p110α/p85α (human)): > 5 µM
IC50 (PI3K (p120γ) (human)): > 30 µM
IC50 (mTOR (human)): > 10 µM
IC50 (PI3K p110δ/p85α (human)): > 10 µM
IC50 (human recombinant ATM): < 0.001 µM
IC50 (human recombinant ATM; 10 μM ATP, p53 substrate): < 0.001 µM
